Measured values: patent publication US20150064221A1, “COMPOUNDS HAVING IMMUNOMUDULATOR ACTIVITY” (priority 2012, published 2015)
Entries after “also recorded” stand apart in the source; their conditions may differ.

Experiments:
[1] = Plasma pharmacokinetics after intraperitoneal administration; assay type: in vivo; settings: mouse, ip, mice, i.p. 20 mg/kg
Method: To determine the pharmacokinetic properties of VGX-1027, drug concentrations were analyzed in the plasma of mice. The drug was measured post intraperitoneum administration at 20 mg/kg […] in 500 mM Na2HPO4, which is a therapeutically active concentration. […] Based on the linear part of the pharmacokinetic profile, the t1/2 of VGX-1027 is approximately 90 minutes.

MLD-STZ-induced diabetes = assay: Streptozotocin (MLD-STZ) induced diabetes; assay type: in vivo, CBA/H mice
Method: (A) Euglycaemic female 12 week old NOD mice were treated intraperitoneally with either 20 mg/kg bw VGX-1027 or its vehicle six times a week from the 12th until the 25th week of age. An additional control group of mice was left untreated. Each group consisted of 16 mice. The data are representative of two independent experiments that were merged because of interstudies variability lower than 10%. Statistical analysis was performed by Logrank (Mantel-Cox). (B) Plasma glucose levels in control CBA/H mice receiving STZ (40 mg/kg/day, for 5 consecutive days) in conjunction with 12 daily intreperitoneum injections of vehicle (STZ), or in mice treated with STZ and VGX-1027 given as a continuous 12-day treatment. 100 mg/kg bw of VGX-1027, administered orally from day −1 to day +10. Results from a representative experiment are presented as mean±SD for seven to eight mice per group. *p<0.05 refers to treatment with MLD-STZ.
Both intraperitoneal and oral treatment with VGX-1027 suppressed clinical development of diabetes. Clinical development of diabetes was attempted to be induced in CBA/H mice by multiple low doses of streptozotocin. CBA/H mice developed sustained hyperglycemia over a 2-week period following MLD-STZ injections. As expected, CBA/H control mice treated with the vehicle of VGX-1027 either orally or intraperitoneally developed diabetes with sustained hyperglycemia developed over a 2-week period following MLD-STZ injections.
The effect of VGX-1027 with STZ-induced diabetes was also evaluated. STZ is a DNA alkylating agent with particular toxicity to pancreatic β cells. VGX-1027 was administered orally for 12 days, and STZ was administered into mice for 5 consecutive days starting a day after VGX-1027 treatment.

[2] = test system: RIN-m5F and MIN6 insulinoma cell lines; assay: Cytokine-stimulated insulinoma cell lines; assay type: cell-based
Method: Both results were determined 48 hours post stimulation, and VGX-1027 was added at the time of stimulation.
Insulinoma cell lines, which die following stimulation with either IL-1β/INF-γ or TNF-α/INF-γ, were used in this study. Specifically, cell lines RIN-m5F and MIN6 were treated with either IL-1β/INF-γ alone or IL-1β/INF-γ/VGX-1027, and TNF-α production, which is a consequence of stimulation with these factors, was measured.

[3] = test system: U937s, RAWs, primary monocytes, PBMCs, Jurkats, undifferentiated CD4 T cells, 293Ts, RD cells; assay: LPS-induced TNF-α production in different cell types; assay type: cell-based
Method: (A) Cell viability was measured via the MTT assay after 48 hours of treatment. (B) TNF-α levels were measured 48 hours post LPS (5 μg/ml) stimulation. (C) CD4 T cells were stimulated with either ConA (10 μg/ml) or anti-CD3/CD28 beads (10 μg/ml), and proliferation was measured via 3H-thymidine incorporation.
Next, the production of TNF-α was measured following LPS stimulation in these different cell types. […] VGX-1027-induced effects were not observed.

[4] = test system: systemic lupus erythematosus (SLE); assay: NZB/NZW F1 model of systemic lupus erythematosus; assay type: in vivo, NZB/NZW F1 mice
Method: FIG. 19. Effects of VGX-1027 administration on survival rate (A), proteinuria (B) and serum anti-dsDNA antibodies (C) of NZB/NZW F1 mice treated for 20 weeks with either VGX-1027 or vehicle.
FIG. 20. Histopathological analysis (A) and relative phospho-STAT3 (B) levels in kidney sample of NZB/NZW F1 mice treated for 20 weeks with either VGX-1027 or vehicle.
To determine the effects of VGX-1027 on the development and progression of SLE, lupus-prone NZB/NZW F1 were treated daily with 5 mg/mouse VGX-1027 i.p. for 20 weeks, starting at 16 weeks of age. Control mice received an equal volume of vehicle. Control mice started to die at 20 weeks of age. By week 36, 62.5% of them were dead compared to the only 33.3% of treated mice (p=0.0487 by Log-rank test) (FIG. 19A). Improved survival was correlated with inhibition of renal disease. Proteinuria was assessed once a week. […] Eventually, all of the mice developed proteinuria but the delay in disease progression and prolonged survival of VGX-1027 treated animals remained evident (FIG. 19B).

O=C(O)CC1CC(c2ccccc2)=NO1 (stereo not shown) [VGX-1027, 3-phenyl-4,5-dihydro-5-isoxazoleacetic acid]
Tmax ([1]; 20 mg/kg): 2 h | concentration at 6 h ([1]; after 6 hours post injection, read-out: plasma drug concentration): < 10000 ng/mL | concentration at 30 min ([1]; by 30 minutes post injection, read-out: plasma drug concentration): > 80 µg/mL | half-life ([1]; linear part of the profile): ~90 min | Cmax ([1]; read-out: peak plasma concentration (Cmax)): 130 µg/mL | diabetogenic effect of MLD-STZ (MLD-STZ-induced diabetes; intraperitoneally): significantly reduced | development of hyperglycemia (MLD-STZ-induced diabetes; orally (100 mg/kg, 12 days), 100 mg/kg): did not develop hyperglycemia; also recorded: significantly reducing | infiltration of immune cells, atrophy and loss of islet margins in pancreas (MLD-STZ-induced diabetes; orally, 12 days): prevented | TNF-α production ([2]; IL-1β/INF-γ stimulation, both cell types, 48 hours): significantly repressed | cell viability ([2]; IL-1β/INF-γ with co-treatment, 48 hours): over 60% | cell viability with exogenous rTNF-α ([2]; IL-1β/INF-γ/TNF-α): prevented the protective effect | TNF-α production ([3]; 293Ts): did not affect | TNF-α production ([3]; Jurkats): did not affect | LPS-induced TNF-α production ([3]; PBMCs): inhibited | LPS-induced TNF-α production ([3]; RAWs): inhibited | TNF-α production ([3]; RD cells): did not affect | LPS-induced TNF-α production ([3]; U937s): inhibited | LPS-induced TNF-α production ([3]; primary monocytes): inhibited | TNF-α production ([3]; undifferentiated CD4 T cells): did not affect | serum anti-dsDNA autoantibodies ([4]; 36-weeks old, p<0.0001): significant lower levels | anti-dsDNA antibodies ([4]; at 26 weeks of age): Only slightly increased levels | mice dead ([4]; by week 36, 5 mg/mouse i.p. daily for 20 weeks): 33.3% | renal histopathology mean score ([4]; end-stage nephritis, p=0.01): 1.9±0.8 | relative levels of renal p-STAT3 (ELISA) ([4]; p=0.0234): significant reduction | levels of proteinuria ([4]; throughout the experimental period, p=0.0265): significantly lower
